Measured values: patent US20160250224A1, “OREXIN-CONTROL OF BONE FORMATION AND LOSS” (THE BOARD OF REGENTS OF THE UNIVERSITY OF TEXAS SYSTEM, priority 2013, published 2016)
Where no end group is shown, it is not given here.

Columns and labels:
OX1 = molecular target: T1, OX1 (Homo sapiens, UniProt O43613); conditions: OX1 vs OX2; cited from earlier work
T1 sequence (O43613 1-425): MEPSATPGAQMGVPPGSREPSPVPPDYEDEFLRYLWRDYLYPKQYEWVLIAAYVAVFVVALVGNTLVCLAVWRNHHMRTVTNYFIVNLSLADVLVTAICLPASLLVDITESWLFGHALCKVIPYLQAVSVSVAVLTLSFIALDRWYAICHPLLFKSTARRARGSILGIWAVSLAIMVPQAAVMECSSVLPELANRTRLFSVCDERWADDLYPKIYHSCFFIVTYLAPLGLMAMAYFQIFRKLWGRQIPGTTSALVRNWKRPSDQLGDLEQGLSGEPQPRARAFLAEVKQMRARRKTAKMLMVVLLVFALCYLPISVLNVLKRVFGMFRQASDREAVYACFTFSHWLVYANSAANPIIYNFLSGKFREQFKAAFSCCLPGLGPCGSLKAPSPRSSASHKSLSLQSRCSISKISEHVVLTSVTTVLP

[1] = test system: osteoblast differentiation from WT marrow; experiment: Ex vivo bone marrow osteoblast differentiation; assay type: cell-based, mouse; conditions: 10 nM, vs vehicle control
Experimental: (§1) Ex Vivo Bone Marrow Differentiation. Bone marrow cells were cultured for 4 days in MSC media (Mouse MesenCult® Proliferation Kit, StemCell Technologies), then differentiated into osteoblast with a-MEM containing 10% FBS, 5 mM β-glycerophosphate and 100 μg/ml ascorbic acid for 9 days, or differentiated into adipocytes with adipogenesis medium (MesenCult Basal Medium+Mouse MesenCult Adipogenic Stimulatory Supplement, StemCell Technologies) for 7 days (Wei et al., 2012; Wei et al., 2011a; Wei et al., 2011b). For ghrelin knockdown, siRNA was transfected twice with Fugene HD (Roche) the day before and 3 days after differentiation. Osteoclast differentiation was performed as described (Wan et al., 2007; Wei et al., 2010).

ghrelin [2] = experiment: Ghrelin expression and secretion in marrow adipocyte differentiation cultures; assay type: cell-based, mouse; conditions: for ghrelin expression in adipocyte differentiation cultures: 10 nM, ghrelin mRNA; for ghrelin secretion: adipocyte culture (not shown)
[3] = test system: adipocyte differentiation from WT marrow; experiment: Ex vivo bone marrow adipocyte differentiation; assay type: cell-based, mouse; conditions: 10 nM, vs vehicle control
Experimental: as §1

ghrelin [4] = experiment: Ghrelin expression and secretion in marrow osteoblast differentiation cultures; assay type: cell-based, mouse; conditions: 10 nM; for ghrelin induction during osteoblast differentiation: ghrelin mRNA; for ghrelin secretion: osteoblast culture
3T3-L1 adipocytes = conditions: cited from earlier work
orexin receptor type 2 = molecular target: T2, orexin receptor type 2 (Homo sapiens, UniProt O43614); conditions: type 2 vs type 1; cited from earlier work
T2 sequence (O43614 1-444): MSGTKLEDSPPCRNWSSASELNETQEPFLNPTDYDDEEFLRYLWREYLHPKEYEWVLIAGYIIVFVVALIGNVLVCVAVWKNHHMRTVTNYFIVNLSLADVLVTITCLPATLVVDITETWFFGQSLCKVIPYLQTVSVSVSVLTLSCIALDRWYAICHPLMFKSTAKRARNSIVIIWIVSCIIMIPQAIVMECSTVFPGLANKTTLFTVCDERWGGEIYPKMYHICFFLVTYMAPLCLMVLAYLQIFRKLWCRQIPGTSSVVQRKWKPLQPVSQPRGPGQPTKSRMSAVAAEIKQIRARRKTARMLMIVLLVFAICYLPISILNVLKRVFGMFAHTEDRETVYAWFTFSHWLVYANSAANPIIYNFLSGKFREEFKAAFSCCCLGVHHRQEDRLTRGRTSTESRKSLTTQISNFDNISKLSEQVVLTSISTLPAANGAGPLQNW

insomniacs = conditions: phase III, three months; cited from earlier work
Ob/Ob mice = experiment: Chronic ICV injection of OX2R agonist in Ob/Ob mice; assay type: in vivo, mouse
Experimental: (§2) Bone Analyses. μCT and histomorphometry were performed as described (Wei et al., 2012; Wei et al., 2010). Calcein (20 mg/kg) were injected 2 and 10 days before bone collection. For strength measurement, tibiae were tested by 3-point bending, and a strength parameter (peak load at failure) was assessed with a Test Resources DDL200 axial loading machine outfitted with an Interface SMT1-22 force transducer. Cross-head displacement rate was 0.1 mm/sec. Tests were conducted on the mid-diaphyses with the bones resting on two supports 5 mm apart and the tibial anterior margins facing upward toward the actuator. Serum P1NP and CTX-1 were measured with the Rat/Mouse P1NP EIA kit and the RatLaps™ EIA kit, respectively (Immunodiagnostic Systems) (Wei et al., 2012).
(§3) Chronic ICV Injection. Mice were single-housed one week before surgery. After anesthetized with 2-3% isoflurane, a cannula (3300PM/SPC; PlasticsOne) was implanted into the right lateral ventricle (0.3 mm posterior from the bregma, […] lateral from the midline, and 2.4 mm from the surface of skull) using standard sterile stereotactic techniques as described (Funato et al., 2009). An osmotic minipump (model 1004; Alzet) was attached to the cannula and implanted in the subcutaneous space. The OX2R selective agonist ([Ala11, D-Leu15] Orexin-B; American Peptide) (Asahi et al., 2003) or PBS control was continuously injected in the lateral ventricle for 35 days (0.5 nmol/day) before analyses. Ovariectomy or sham operation was performed 3 days before ICV infusion as described (Wei et al., 2011b).

[5] = test system: OVX-induced bone loss in WT female mice; experiment: Chronic ICV injection of OX2R agonist in ovariectomy (OVX) mouse model; assay type: in vivo; conditions: ICV 0.5 nmol/day for 35 days from 3 days after OVX, 6-month-old female mice
Experimental: as §2, §3

WT mice = experiment: Chronic ICV injection of OX2R agonist in WT mice, bone analyses; assay type: in vivo, mouse
Experimental: as §2, §3

OX2R-KO mice = experiment: Chronic ICV injection of OX2R agonist in OX2R-KO mice; assay type: in vivo, mouse; conditions: ICV 0.5 nmol/day for 35 days
Experimental: as §2
Chronic ICV Injection. Mice were single-housed one week before surgery. After anesthetized with 2-3% isoflurane, a cannula (3300PM/SPC; PlasticsOne) was implanted into the right lateral ventricle (0.3 mm posterior from the bregma, […] lateral from the midline, and 2.4 mm from the surface of skull) using standard sterile stereotactic techniques as described (Funato et al., 2009). An osmotic minipump (model 1004; Alzet) was attached to the cannula and implanted in the subcutaneous space. […]

orexin-A receptor = molecular target: T3, orexin-A receptor (Rattus norvegicus, UniProt P56718); conditions: rats, low doses; cited from earlier work
T3 construct: The insula contains orexin-A receptors; from tissue; host or cells: rat brain (insula; whole brain), in vivo
T3 sequence (P56718 1-416): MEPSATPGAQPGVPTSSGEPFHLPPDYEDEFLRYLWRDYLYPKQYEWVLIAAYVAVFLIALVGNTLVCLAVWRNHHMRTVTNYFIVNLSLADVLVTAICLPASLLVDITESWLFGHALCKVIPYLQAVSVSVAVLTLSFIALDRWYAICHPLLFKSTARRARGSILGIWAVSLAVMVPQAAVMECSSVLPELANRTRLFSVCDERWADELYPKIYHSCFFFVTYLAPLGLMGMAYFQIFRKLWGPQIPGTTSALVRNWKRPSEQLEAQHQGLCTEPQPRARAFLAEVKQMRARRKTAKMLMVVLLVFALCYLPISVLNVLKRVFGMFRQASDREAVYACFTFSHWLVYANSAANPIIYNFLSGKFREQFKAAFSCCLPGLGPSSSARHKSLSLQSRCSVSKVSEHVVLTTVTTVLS

[6] = ICV 0.5 nmol/day for 35 days, WT male mice, serum
[7] = ICV 0.5 nmol/day for 35 days, WT male mice, tibiae μCT

## orexin-A: Human orexin-A peptide, 33 amino acid residues, agonist for OX1R and OX2R (QPLPDCCRQKTCSCRLYELLHGAGNHAAGILTL; ends and bridges not checked; cysteine pairing not given here; UniProt O43612 34-66, looked up)
OX1
  binding to both OX1 and OX2: approximately equal affinity
[1]
  osteoblast differentiation: inhibited
Ghrelin [2]
  ghrelin expression in adipocyte differentiation cultures: inhibited
[3]
  adipocyte differentiation: enhanced
Ghrelin [4]
  ghrelin induction during osteoblast differentiation: abolished
3T3-L1 adipocytes; 3T3-L1 adipocytes
  glucose uptake: stimulates
3T3-L1 adipocytes; adipocytes
  lipogenesis: increases
  lipolysis: inhibits
  secretion of adiponectin: stimulates

## orexin-B: Human orexin-B, linear 28 amino acid residue peptide, agonist for mainly OX2R
OX1
  potency at OX1, less than at OX2: 5 times
Orexin receptor type 2
  selectivity for orexin receptor type 2: 10 fold

## Cc1ccc(-n2nccn2)c(C(=O)N2CCN(c3nc4cc(Cl)ccc4o3)CC[C@H]2C)c1 [suvorexant]
insomniacs
  falling asleep: faster
  sleep duration: an hour longer

## [Ala11, D-Leu15] Orexin-B [OX2R-AG]
Ob/Ob mice
  BV/TV: no longer able to increase
  Tb.N: no longer able to increase
  Tb.Sp: no longer able to increase
Ob/Ob mice; 12 week old male
  bone enhancing effects: completely abolished
Ob/Ob mice; serum
  P1NP: no longer able to increase
[5]
  OVX-induced bone loss: attenuated
  OVX-mediated increase in CTX-1: not significantly altered
  OVX-mediated reduction in P1NP: significantly abolished
  OVX-mediated reduction in bone formation rate: rescued
  OVX-mediated reduction in osteoblast number: rescued
WT mice; ICV 0.5 nmol/day for 35 days, WT male mice
  bone mass (μCT): remarkably enhanced
WT mice; [6]
  CTX-1: unaltered
  P1NP, increased: 100%
WT mice; ICV 0.5 nmol/day for 35 days, WT male mice, three-point bending
  peak load at fracture, higher: 11%
WT mice; [7]
  BMD, higher: 8%
  SMI, lower: 25%
  Tb.N, higher: 32%
  Tb.Sp, lower: 33%
  Tb.Th, higher: 30%
  cortical bone BV/TV, higher: 1%
  cortical bone porosity, less: 30%
  trabecular BV/TV, higher: 66%
WT mice; ICV injection, WT mice
  serum leptin levels: decreased
OX2R-KO mice; 10-week-old OX2R-KO male mice
  Serum P1NP: unaltered
OX2R-KO mice; OX2R-KO male mice
  bone anabolic effect: abolished

## Cc1cc(NC(=O)Nc2ccc(N(C)C)cc2)c2cc(F)cc(F)c2n1 [SB-408124]
[1]
  osteoblast differentiation: promoted
Ghrelin [2]
  ghrelin expression in adipocyte differentiation cultures: enhanced
  ghrelin secretion: elevated
[3]
  adipocyte differentiation: attenuated
Ghrelin [4]
  ghrelin induction during osteoblast differentiation: potentiated
  ghrelin secretion: elevated

## Cc1nc2ccc(NC(=O)Nc3ccnc4cccnc34)cc2o1 [SB-334,867]
orexin-A receptor
  nicotine self-administration: decreased

## CNC(=O)[C@@H](c1ccccc1)N1CCc2cc(OC)c(OC)cc2[C@@H]1CCc1ccc(C(F)(F)F)cc1 [ACT-078573, almorexant]
[1]
  osteoblast differentiation: promoted
Ghrelin [2]
  ghrelin expression in adipocyte differentiation cultures: enhanced
  ghrelin secretion: elevated
[3]
  adipocyte differentiation: attenuated
Ghrelin [4]
  ghrelin induction during osteoblast differentiation: potentiated
  ghrelin secretion: elevated
